Reference: publication PMC8533176, “1,5-Benzodiazepin-2(3H)-ones: In Vitro Evaluation as Antiparkinsonian Agents” (Antioxidants, 2021)
Like-named read-outs stand apart in the source and are kept apart here.

Experiments:
[1] = ABTS radical scavenging assay; format: biochemical; settings: for IC50: 30-min incubation; for ABTS Assay TEAC50: Equivalent antioxidant capacity at Trolox 50 mM; for ABTS Assay TEAC100: Equivalent antioxidant capacity at Trolox 100 mM
Experimental: The mixture was stored in the dark at room temperature for 16 h. […] All the compounds tested were dissolved in EtOH. […] The degree of decolorization was calculated as the percentage reduction of absorbance. […] Trolox was used as a reference antioxidant.

[2] = Ferric reducing antioxidant power (FRAP) assay; format: biochemical; set-up: FRAP Assay Trolox Equivalents: unit not given here; settings: for FRAP Assay Antioxidant Capacity (%) at 100 uM: compound at 100 uM; for FRAP Assay Antioxidant Capacity (%) at 200 uM: compound at 200 uM
Experimental: FRAP reagent was prepared by mixing 10 mL of 300 mM acetate buffer with 1 mL of 10 mM 2,4,6-tripyridyl-S-triazine (TPTZ) in HCl 40 mM and 1mL of FeCl3·6H2O 20 mM. […] Trolox was used as assay control.

[3] = Kinetic solubility by UV spectrometry; format: physicochemical; settings: PBS 50 mM, aqueous buffer, kinetic from dmso stock
Experimental: A modified protocol was used from that described by Hoelke et al. for the determination of the kinetic solubility from DMSO compound solutions. A compound calibration curve (compound concentration vs UV absorption) was prepared for each compound with concentrations of 10, 20, 50, 100, and 200 µM. Each compound dilution was carried out by pipetting defined volumes of a 20 mM stock compound solution in DMSO into vials and adding PBS 50 mM to reach a final volume of 1 mL/well. The final amount of DMSO per well was 2%. For the lower compound concentrations, an additional volume of DMSO was added to each well to reach 2% DMSO. Then, 200 µL of each dilution was transferred to a new 96-well culture plate for the measurement of the UV-spectra. One well in each row was left without a compound as a blank, and its UV absorbance was used as an offset correction. The experiments were performed in duplicate.
In parallel, compound saturation solutions were reached and filtered from 20 mM compound stock in DMSO: 10 µL of a 20 mM stock solution was dispensed into 190 µL of PBS 10 mM. The solutions were mixed, shaken on a microplate shaker for two hours, and then 160 µL of each solution was filtered and transferred to a new well plate for UV absorption measurement.
Measurement of the UV-spectra was performed using a Varioskan microplate reader, and spectra were taken in the range of 270–600 nm. Spectral bandwidth was set to 5 nm, and the data pint interval was 10 nm. The experiments were carried out in triplicate.

SH-SY5Y cells = assay: Cytotoxicity, MTT assay, SH-SY5Y; format: cell-based; settings: Homo sapiens, read-out: SH-SY5Y IC50
Experimental: (§1) All compounds tested were dissolved and eventually further diluted in dimethylsulfoxide (DMSO). After overnight incubation, the cells were treated with different compound concentrations (5, 10, 20, 50, 100, 150, 200 µM) in a final volume of 200 µL with four replicates each. […] Cell proliferation or viability was measured using the 3-(4,5-dimethylthiazol-2-yl)-2,5-diphenyl tetrazolium bromide (MTT) assay. The MTT assay was optimized taking into account the number of cells plated per well, to work in the linear part of the cell density vs. MTT absorbance calibration curve, which allows achieving a maximum absorbance in the range of 0.8–1.0 in each well at the end of the experiment. In addition to that, the number of cells seeded for each experiment was optimized in agreement with the time scale of the experiment.
(§2) After cell treatment, 20 µL of MTT (5 mg/mL) was added to each well, and the plate was incubated at 37 °C in the dark for 2 h. Supernatants were removed, and the formazan crystals were solubilized in DMSO (200 µL/well), under 10 min shaking at room temperature. The reduction of MTT was quantified by absorbance at 570 nm in a Varioskan microplate reader (Thermo Fisher Scientific, Vantaa, Finland). Effects of the test compounds on cell viability were calculated using cells treated with a vehicle as a control. For IC50 and LD50 calculations, the data were subjected to linear regression analysis, and the regression lines were plotted for the best fit. The IC50 (inhibition of cell viability) concentrations were calculated using the respective dose–response curves.

HepG2 cells = assay: Cytotoxicity, MTT assay, HepG2; format: cell-based; settings: Homo sapiens
Experimental: as §1, §2

[4] = HepG2, MTT, cytotoxicity, read-out: HepG2 IC50

IC50 [1]	solubility [3]	melting point	SMILES	FRAP Assay Trolox Equivalents [2]	FRAP Assay Antioxidant Capacity (%) at 100 uM [2]	FRAP Assay Antioxidant Capacity (%) at 200 uM [2]	IC50 (SH-SY5Y cells)	IC50 (HepG2 cells; HepG2, read-out: HepG2 IC50)	IC50 (SH-SY5Y cells; MTT, cytotoxicity)	IC50 (HepG2 cells; [4])	ABTS Assay TEAC50 [1]	ABTS Assay TEAC100 [1]
> 1000 µM	< 100 µM	253.3 °C	O=C1CC(c2ccccc2)=Nc2c(F)c(F)c(F)c(F)c2N1 [Compound 3, 6,7,8,9-tetrafluoro-4-phenyl-1H-1,5-benzodiazepin-2(3H)-one]	0.03	1.5%	1.8%	–	–	> 250 µM	> 250 µM	–	–
> 500 µM	< 100 µM	241.8 °C	COc1cc(C2=Nc3cc(F)c(F)cc3NC(=O)C2)cc(OC)c1OC [Compound 22, 7,8-Difluoro-4-(3,4,5-trimethoxyphenyl)-1H-1,5-benzodiazepin-2(3H)-one]	0.30	15.7%	13.7%	–	–	> 250 µM	> 250 µM	–	–
576 ± 40 µM	> 200 µM	155.2 °C	CC1=Nc2c(F)c(F)c(F)c(F)c2NC(=O)C1 [Compound 1, 6,7,8,9-Tetrafluoro-4-methyl-1H-1,5-benzodiazepin-2(3H)-one]	0.01	0.5%	0.5%	–	–	> 250 µM	> 250 µM	0.33	0.16
> 1000 µM	> 200 µM	–	CN1C(=O)CC(c2ccccc2)=Nc2cc(F)cc(F)c21 [Compound 16, 7,9-Difluoro-1-methyl-4-phenyl-1H-1,5-benzodiazepin-2(3H)-one]	0.00	0%	0%	–	–	> 250 µM	> 250 µM	–	–
496 ± 82 µM	< 10 µM	–	O=C1CC(c2ccccc2)=Nc2cc(F)cc(F)c2N1 [Compound 15, 7,9-Difluoro-4-phenyl-1H-1,5-benzodiazepin-2(3H)-one]	0.07	3.8%	6.2%	–	–	> 250 µM	> 250 µM	0.34	0.15
25.1 ± 1.2 µM	–	–	Cc1c(C)c2c(c(C)c1O)CCC(C)(C(=O)O)O2 (stereo not shown) [Trolox, reference compound]	1	51.3%	100%	–	–	–	–	1	1
> 500 µM	< 20 µM	246 °C	COc1cc(C2=Nc3cc(Cl)c(Cl)cc3NC(=O)C2)cc(OC)c1OC [Compound 23, 7,8-Dichloro-4-(3,4,5-trimethoxyphenyl)-1H-1,5-benzodiazepin-2(3H)-one]	0.03	2.7%	4.6%	–	–	> 250 µM	–	–	–
658 ± 96 µM	< 20 µM	248.1 °C	O=C1CC(c2ccccc2F)=Nc2c(F)c(F)c(F)c(F)c2N1 [Compound 5, 6,7,8,9-tetrafluoro-4-(2-fluorophenyl)-1H-1,5-benzodiazepin-2(3H)-one]	0.03	1.4%	5.5%	–	–	> 250 µM	> 250 µM	0.32	0.15
> 1000 µM	< 50 µM	221.5 °C	O=C1CC(c2ccccc2)=Nc2c(F)cc(F)cc2N1 [Compound 17, 6,8-Difluoro-4-phenyl-1H-1,5-benzodiazepin-2(3H)-one]	0.04	1.8%	2.5%	–	–	> 250 µM	> 250 µM	–	–

The next lines start with the compound.

SMILES	IC50 [1]	solubility [3]	melting point	FRAP Assay Trolox Equivalents [2]	FRAP Assay Antioxidant Capacity (%) at 100 uM [2]	FRAP Assay Antioxidant Capacity (%) at 200 uM [2]	IC50 (SH-SY5Y cells)	IC50 (HepG2 cells; HepG2, read-out: HepG2 IC50)	IC50 (SH-SY5Y cells; MTT, cytotoxicity)	IC50 (HepG2 cells; [4])	ABTS Assay TEAC50 [1]	ABTS Assay TEAC100 [1]
CN1C(=O)CC(c2ccccc2Cl)=Nc2c(F)c(F)c(F)c(F)c21 [Compound 8, 6,7,8,9-tetrafluoro-4-(2-chlorophenyl)-1-methyl-1H-1,5-benzodiazepin-2(3H)-one]	> 1000 µM	< 100 µM	128.7 °C	0.01	0.6%	0.2%	150 ± 17 µM	207 ± 27 µM	–	–	–	–
CN1C(=O)CC(c2ccccc2)=Nc2ccccc21 [Compound 19, 1-Methyl-4-phenyl-1H-1,5-benzodiazepin-2(3H)-one]	> 1000 µM	> 200 µM	–	0.03	1.7%	3.5%	201 ± 27 µM	> 250 µM	–	–	–	–
CN1C(=O)CC(c2ccccc2)=Nc2cc(F)ccc21 [Compound 14, 7-Fluoro-1-methyl-4-phenyl-1H-1,5-benzodiazepin-2(3H)-one]	> 1000 µM	> 200 µM	107.7 °C	0.01	0.3%	0.6%	220 ± 27.9 µM	233 ± 18.7 µM	–	–	–	–
CN1C(=O)CC(c2ccccc2F)=Nc2c(F)c(F)c(F)c(F)c21 [Compound 6, 6,7,8,9-tetrafluoro-4-(2-fluorophenyl)-1-methyl-1H-1,5-benzodiazepin-2(3H)-one]	> 1000 µM	< 200 µM	142.6 °C	0.02	1.1%	1.6%	> 250 µM	> 250 µM	–	–	–	–
O=C1CC(c2ccccc2Cl)=Nc2c(F)c(F)c(F)c(F)c2N1 [Compound 7, 6,7,8,9-tetrafluoro-4-(2-chlorophenyl)-1H-1,5-benzodiazepin-2(3H)-one]	635 ± 87 µM	< 50 µM	211.7 °C	0.01	0.6%	0.4%	–	–	135 ± 11.2 µM	201 ± 13.1 µM	0.35	0.16
CN1C(=O)CC(c2ccccc2)=Nc2ccc(F)cc21 [Compound 12, 8-Fluoro-1-methyl-4-phenyl-1H-1,5-benzodiazepin-2(3H)-one]	> 1000 µM	> 200 µM	–	0.02	0.8%	1.4%	240 ± 24.9 µM	230 ± 25.5 µM	–	–	–	–
CC1=Nc2c(F)c(F)c(F)c(F)c2N(C)C(=O)C1 [Compound 2, 6,7,8,9-tetrafluoro-1,4-dimethyl-1H-1,5-benzodiazepin-2(3H)-one]	> 1000 µM	> 200 µM	132.2 °C	0.02	1.00%	0.5%	–	–	> 250 µM	> 250 µM	–	–
CN1C(=O)CC(c2ccccc2)=Nc2c(F)c(F)c(F)c(F)c21 [Compound 4, 6,7,8,9-tetrafluoro-4-phenyl-1-methyl-1H-1,5-benzodiazepin-2(3H)-one]	> 1000 µM	–	133.7 °C	0.02	1.1%	1.3%	–	–	> 250 µM	> 250 µM	–	–
